Source: paper PMC7829778, “Optimization of 1,4-Naphthoquinone Hit Compound: A Computational, Phenotypic, and In Vivo Screening against Trypanosoma cruzi” (Molecules, 2021)
Read-outs that look alike come from different tables or passages of the source.

Experiments:
[1] = tested on: T. cruzi trypomastigotes Dm28c-Luc; assay: Trypanocidal activity against trypomastigotes, Dm28c-Luc clone (luciferase); type: cell-based, Trypanosoma cruzi; conditions: 24 h, mean ± SD of three experiments; for IC50: read-out: Trypanocidal Effect Trypomastigotes Dm28c-Luc IC50; for IC90: read-out: Trypanocidal Effect Trypomastigotes Dm28c-Luc IC90
Protocol: (§1) T. cruzi Dm28c-Luc clone, genetically modified to express firefly luciferase, and Y strain were used in the drug screening assay. Vero cells were infected with T. cruzi, Dm28c-Luc or Y strain, in a 10:1 parasites/host cell ratio and maintained at 37 °C in humidified atmosphere of 5% CO2. Trypomastigotes were harvested from the infected culture supernatant on the 4th day post-infection (dpi) followed by quantification of the number of parasites/mL in Neubauer chamber.
(§2) Screening of the compounds was performed against trypomastigotes and intracellular amastigote forms. Trypomastigotes (1 × 10^6 parasites/well), Dm28c-Luc clone and Y strain, were incubated for 24 h at 37 °C with the 1,4 naphthoquinone derivatives and Bz (0.41–100 μM) and their viability determined by the activity of the luciferase enzyme, after addition of luciferin substrate (300 μg/mL), or CellTiter Glo. The luminescent signal was detected on the FlexStation 3 reader.

[2] = tested on: T. cruzi Y strain; assay: Murine model of T. cruzi acute infection; type: in vivo, Trypanosoma cruzi
Protocol: Male Swiss Webster mice (18 g) were obtained from the Institute of Science and Technology in Bio-models of the Oswaldo Cruz Foundation, Rio de Janeiro, Brazil. […] The animals received water and an ad libitum feeding regimen. Mice were intraperitoneally (i.p.) infected with bloodstream trypomastigotes of T. cruzi Y strain (10^4 parasites/animal) and parasitemia was daily evaluated from the 4th dpi. […] Daily treatment (0.1 mL i.p. dose) started at 5 days post-infection (dpi) with positive parasitemia and followed up to 10 dpi.
Parasitemia was estimated by Pizzy-Brener method [47]. Briefly, animals parasitemia were determined by microscopic quantification of fresh blood (5 µL) collected from animals’ caudal vein. Mortality was daily evaluated up to 26 days and expressed in survival rates.

[3] = tested on: T. cruzi trypomastigotes Y strain; assay: Trypanocidal activity against trypomastigotes, Y strain (CellTiter Glo); type: cell-based; conditions: Trypanosoma cruzi, 24 h
Protocol: as §1, §2

[4] = tested on: intracellular amastigotes of T. cruzi (Dm28c-Luc clone); assay: Luminescent screening against intracellular amastigotes in infected Vero cells; type: cell-based, Trypanosoma cruzi; conditions: infected Vero cells treated for 72 h, mean ± SD of three experiments
Protocol: as §1
The effect of the compounds against intracellular amastigotes was screened in 72 h T. cruzi-infected Vero cells. Briefly, Vero cells seeded (1.5 × 10^4 cells/well) on 96-well white plate infected with trypomastigotes (Dm28c-Luc) at a 10:1 multiplicity of parasites/cell. After 24 h of infection, the cultures were washed with PBS and then, treated for 72 h at 37 °C with naphthoquinone derivatives and Bz (0.41–100 µM). After treatment, luciferin (300 µg/mL) was added to the culture and the viability of the parasites was assessed by reading the luminescent signal using the FlexStation 3 reader. Controls were also performed in no-toxic concentrations of DMSO (≤1%).

[5] = Cytotoxicity in vitro assay (CellTiter Glo, ATP level); type: cell-based; conditions: African green monkey, Vero cells
Protocol: The cultures were maintained at 37 °C in humidified atmosphere of 5% CO2.
To evaluate the toxic effects of the 1,4-naphthoquinone derivatives on mammalian cells, Vero cells were seeded at a density of 1.5 × 10^4 cells/well in 96-well white culture plates. Twenty-four hours later, the cell cultures were incubated for 72 h at 37 °C with 1,4-naphthoquinone derivatives (series 1(a–i) and 2(a–j)) and Bz (500–1.9 µM) diluted in RPMI medium supplemented with 10% FBS. After incubation, the cell viability, measured by ATP level, was assessed by adding 20 µL/well of the CellTiter Glo (Promega Corporation, Madison, WI, EUA) solution. The luminescent signal was read on the FlexStation 3 reader (Molecular Devices, Sunnyvale, CA, USA). […] All treatments and controls were performed at low concentration (≤1%) of dimethyl sulfoxide (DMSO). At least three independent assays were performed in duplicate.

[6] = Mouse acute toxicity (NOAEL); type: in vivo
Protocol: Treated animals were separated into two groups: (1) 5 consecutive doses of 50 mg/kg and (2) 100 mg/kg every 1h, totaling a cumulative dose of 250 mg/kg and 500 mg/kg, respectively. Untreated and vehicle treated animals (PBS with 3% Tween-80) were used as control groups. Mice were inspected for toxic and sub-toxic symptoms according to Organization for Economic Co-operation and Development (OECD) guidelines [46].

[7] = tested on: T. cruzi; design: method as in PMID 18788881; conditions: C3H/HeN female infected mice, cited from earlier work
[8] = read-out: Trypanocidal Effect Trypomastigotes Y Strain IC90, trypomastigotes, 24 h, mean ± SD of three experiments
[9] = Table 1, mean ± SD, read-out: Vero Cells Toxicity CC50
[10] = trypomastigotes, mean ± SD of three experiments, read-out: Trypanocidal Effect Trypomastigotes Y Strain IC50
[11] = trypomastigotes, mean ± SD of three experiments, read-out: Trypanocidal Effect Trypomastigotes Y Strain IC90

Compound | IC50 ([1]; Trypanosoma cruzi) | IC90 ([1]; Trypanosoma cruzi) | IC90 [3, 8] | IC90 ([4]; Trypanosoma cruzi) | CC50 at 72 h [5, 9] | CC50 at 72 h ([5]; Table 2, read-out: CC50 Vero) | IC50 [3, 10] | IC90 [3, 11] | IC50 ([4]; Trypanosoma cruzi, Vero, 72 h) | other results
O=C(Cn1ccnc1[N+](=O)[O-])NCc1ccccc1 [Bz, benznidazole, reference compound] | 17.5 ± 3.3 µM | > 100 µM | > 100 µM | 7.9 ± 1.2 µM | > 500 µM | > 500 µM |  |  |  | parasitemia by microscopic analysis ([2]; infected mice treated orally with Bz 100 mg/kg/day): undetectable parasitemia; survival ([2]; infected mice treated orally with Bz 100 mg/kg/day, 26 days): survived during all period analyzed; IC50 ([3]; read-out: Trypanocidal Effect Trypomastigotes Y Strain IC50, trypomastigotes, 24 h, mean ± SD of three experiments): 14.3 ± 3.2 µM; IC50 ([4]; Trypanosoma cruzi): 1.4 ± 0.4 µM
COc1ccc(C(Sc2ccc(Cl)cc2)C2=C(O)C(=O)c3ccccc3C2=O)cc1 (stereo not shown) [Compound 1g, 2-(((4-chlorophenyl)thio)(4-methoxyphenyl)methyl)-3-hydroxynaphthalene-1,4-dione] | 8.1 ± 0.6 µM | ≤ 19.3 µM | ≤ 19.3 µM | 11.4 ± 2.1 µM | 99.9 ± 12.5 µM | 99.5 ± 12.5 µM | 10.2 ± 0.5 µM | 16.8 ± 2.5 µM | ≤ 6.9 µM | IC90 [1]: 19.3 ± 3.4 µM; parasitemia / parasitic load ([2]; Swiss Webster male mice, 10^4 Y strain trypomastigotes, i.p. treatment 5 consecutive days from 5 dpi, C2 50 and 100 mg/kg/day, 1g 50 mg/kg/day): not efficient in eliminating the parasites; prevention of mortality / survival ([2]; Swiss Webster male mice, Y strain, i.p. treatment from 5 dpi, C2 50 and 100 mg/kg/day, 1g 50 mg/kg/day): not able to prevent mortality; IC50 [4]: 6.7 ± 1.8 µM; death in acute toxicity assessment ([6]; intraperitoneal, cumulative dose of 500 mg/kg (5 x 100 mg/kg), n = 2): one animal died; changes in mouse behavioral characteristics ([6]; oral and i.p. cumulative doses, acute toxicity assessment): not observed; toxic side effects according to the OECD guidelines ([6]; oral and i.p., five doses of 50 mg/kg 1 h apart, total cumulative dose 250 mg/kg, up to 48 h post-treatment): No toxic side effects
COc1ccc(C(Sc2ccc3ccccc3c2)C2=C(O)C(=O)c3ccccc3C2=O)cc1 (stereo not shown) [Compound 2h, 2-Hydroxy-3-((4-methoxyphenyl)(naphthalen-2-ylthio)methyl) naphthalene-1,4-dione] | 21.7 ± 4.7 µM | 39.7 ± 5.7 µM |  | 31.5 ± 6.1 µM | 63.4 ± 7.1 µM | 63.4 ± 7.1 µM | 24.5 ± 3.6 µM | 34.5 ± 4.6 µM | 22.4 ± 2.2 µM | melting point: 56 to 57 °C
O=C1C(c2ccccc2)=C(c2ccccc2)C(=O)c2ccccc21 [DPNQ, 2,3-diphenyl-1,4-naphthoquinone] |  |  |  |  |  |  |  |  |  | animal survival ([7]; up to 70 dpi): 60%; parasite load [7]: reduced two-fold the parasite load
